We go through 1 compound from patent US6399645B1, “Chemoprevention and treatment of cervical or vaginal neoplasia” (priority 2000, dated 2002).

Molecules are shown by their SMILES.

Experiment [1] deals with cervical intraepithelial neoplasia (CIN). The experiment can be described thus: Placebo-controlled trial of oral indole-3-carbinol in patients with histologically confirmed CIN, 12 weeks. The experiment is classed as in vivo, human. As to conditions: for patients with complete regression based on 12-week biopsy: placebo 0 of 10; for mean grade change of CIN: placebo 1.22. The method, then: Thirty subjects with histologically confirmed CIN were enrolled. Eligibility requirements were as follows: adequate colposcopy, negative ECC, no suspicion of invasion, non-pregnant, and […]. Evaluating colposcopists and patients were blinded to the treatment. All residents and staff involved in the study were instructed regarding the protocol. The patients were randomized to placebo, 200 mg/day, or 400-mg/day treatment of indole-3-carbinol administered orally for 12 weeks. Randomization was performed by successively assigning patients from a computer-generated randomization table. […] All patients underwent colposcopy at the initial visit as well as at their 4-week, 8-week, and 12-week visit. Photodocumentation of each colposcopic examination was obtained. At the end of the trial, each patient was reexamined, and if the patient had persistent CIN on 12-week biopsy, or if the colposcopic impression was persistent CIN, they underwent LEEP of the transformation zone. The dysplasia was classified by the pathologists in the usual manner and defined as follows: mild dysplasia meaning the presence of immature (dysplastic) cells present in the lower third of the squamous mucosa, moderate dysplasia in the lower two thirds, severe dysplasia the lower three fourths of the thickness of the mucosa and carcinoma in situ (“CIS”) full thickness immaturity. The cases were originally diagnosed by a sign out pathologist. The diagnosis of all cases was verified by the same pathologist for uniformity. In all cases, the pathologist was in agreement with the pathologist that had signed out the case. HPV status was assessed in all patients by Hybrid capture assay tests ([…] Diagnostics; Beltsville, MD) for low-risk (HPV types 6, 11, 42, 43, 44) and high-risk (HPV types 16, 18, 31, 33, 35, 45, 51, 52, 56). If the Hybrid capture assay was negative; a follow-up polymerase chain reaction (PCR) analysis was performed using consensus primers shown below for the L-1 region of HPV to confirm HPV positivity. The PCR amplification conditions were optimized using DNA isolated from paraffin embedded control HPV positive cervical cancer specimens prior to analysis of the study patient'samples.

Experiment [2] deals with HPV-induced benign tumors of laryngeal tissue. As to conditions: mouse model; cited from earlier work.
For the next experiment, the system named is estradiol metabolism. As to the kind of experiment: Urinary 2-hydroxyestrone to 16-alpha-hydroxyestrone ratio by ELISA in trial patients. The experiment is classed as in vivo, human. The protocol: Clean catch urine specimens were obtained from each patient at the initial visit and again at their 4-week visit. 2-hydroxyestrone to 16-alpha-hydrosytestrone ratios were assessed in each urine sample. Ascorbic acid was added to the urine specimens to aid in preservation for accurate analysis. ELISA assays were performed to assess the quantity of 2-hydroxyestrone and 16-alpha-hydroxyestrone in each urine sample, and were reported in ng/ml.

For the next experiment, the system named is mammary carcinogenesis. The note with it: rat model; cited from earlier work.

Take `OCc1c[nH]c2ccccc12` [I3C, 1H-indole-3-methanol]: the “relative risk (RR), protective effect” value was determined as 0.50 in experiment [1] (200 mg/day group vs placebo, 95% CI 0.25 to 0.99, p=0.023) and 0.55 in experiment [1] (400 mg/day group vs placebo, 95% CI 0.31 to 0.99, p=0.032). Further, the “patients with complete regression based on 12-week biopsy” value in experiment [1] (200 mg/day orally for 12 weeks, 4 of 8 patients) turned out to be 50.0%; in experiment [1] (400 mg/day orally for 12 weeks, 4 of 9 patients), 44.4%. The “mean grade change of CIN” value in experiment [1] (200 mg/day orally for 12 weeks) amounted to 1.38; in experiment [1] (400 mg/day orally for 12 weeks) it was 1.78. In addition, in experiment [1] (12 weeks of daily oral administration, summary statement), the “patients with complete regression of CIN” value is recorded as “Roughly half”. Moreover, in experiment [1] (HPV status by Hybrid capture assay / PCR), the “correlation of HPV presence with response” value is “presence of HPV does not correlate with response”. Further, in experiment [1] (placebo, 200 mg/day and 400 mg/day groups), the “dose response of mean grade of CIN regression” value is reported as “linear dose response relationship”. Moreover, the “growth of HPV-induced benign tumors of laryngeal tissue” value in experiment [2] is listed as “inhibits growth”. Moreover, the “change of urinary 2-hydroxyestrone to 16-alpha-hydroxyestrone ratio before and after therapy” value in the experiment with estradiol metabolism (200 mg/day and 400 mg/day groups, initiation vs 4 weeks, placebo showed a decrease) was “general trend in increase in the ratios”. In the experiment on estradiol metabolism (conclusion of the placebo-controlled trial), the “physiologic effect of the drug” value was “seen in a dose-dependent fashion”. Further, the “inhibition of mammary carcinogenesis” value in the experiment with mammary carcinogenesis was “effective in inhibiting mammary carcinogenesis”.
